{"source": "ChEMBL document CHEMBL4270607", "about": "“Identification of crizotinib derivatives as potent SHIP2 inhibitors for the treatment of Alzheimer's disease” (Eur J Med Chem, 2018)", "key": {"[1]": {"assay": "Metabolic stability in mouse liver microsomes assessed as parent compound remaining at 1 uM preincubated for 5 mins followed by NADPH addition measured after 30 mins by LC-MS/MS analysis", "type": "ADME, microsome", "settings": "read-out: Stability"}, "[2]": {"target": "T1, Phosphatidylinositol 3,4,5-trisphosphate 5-phosphatase 2 (Mus musculus) (UniProt Q6P549)", "T1 sequence (whole entry)": "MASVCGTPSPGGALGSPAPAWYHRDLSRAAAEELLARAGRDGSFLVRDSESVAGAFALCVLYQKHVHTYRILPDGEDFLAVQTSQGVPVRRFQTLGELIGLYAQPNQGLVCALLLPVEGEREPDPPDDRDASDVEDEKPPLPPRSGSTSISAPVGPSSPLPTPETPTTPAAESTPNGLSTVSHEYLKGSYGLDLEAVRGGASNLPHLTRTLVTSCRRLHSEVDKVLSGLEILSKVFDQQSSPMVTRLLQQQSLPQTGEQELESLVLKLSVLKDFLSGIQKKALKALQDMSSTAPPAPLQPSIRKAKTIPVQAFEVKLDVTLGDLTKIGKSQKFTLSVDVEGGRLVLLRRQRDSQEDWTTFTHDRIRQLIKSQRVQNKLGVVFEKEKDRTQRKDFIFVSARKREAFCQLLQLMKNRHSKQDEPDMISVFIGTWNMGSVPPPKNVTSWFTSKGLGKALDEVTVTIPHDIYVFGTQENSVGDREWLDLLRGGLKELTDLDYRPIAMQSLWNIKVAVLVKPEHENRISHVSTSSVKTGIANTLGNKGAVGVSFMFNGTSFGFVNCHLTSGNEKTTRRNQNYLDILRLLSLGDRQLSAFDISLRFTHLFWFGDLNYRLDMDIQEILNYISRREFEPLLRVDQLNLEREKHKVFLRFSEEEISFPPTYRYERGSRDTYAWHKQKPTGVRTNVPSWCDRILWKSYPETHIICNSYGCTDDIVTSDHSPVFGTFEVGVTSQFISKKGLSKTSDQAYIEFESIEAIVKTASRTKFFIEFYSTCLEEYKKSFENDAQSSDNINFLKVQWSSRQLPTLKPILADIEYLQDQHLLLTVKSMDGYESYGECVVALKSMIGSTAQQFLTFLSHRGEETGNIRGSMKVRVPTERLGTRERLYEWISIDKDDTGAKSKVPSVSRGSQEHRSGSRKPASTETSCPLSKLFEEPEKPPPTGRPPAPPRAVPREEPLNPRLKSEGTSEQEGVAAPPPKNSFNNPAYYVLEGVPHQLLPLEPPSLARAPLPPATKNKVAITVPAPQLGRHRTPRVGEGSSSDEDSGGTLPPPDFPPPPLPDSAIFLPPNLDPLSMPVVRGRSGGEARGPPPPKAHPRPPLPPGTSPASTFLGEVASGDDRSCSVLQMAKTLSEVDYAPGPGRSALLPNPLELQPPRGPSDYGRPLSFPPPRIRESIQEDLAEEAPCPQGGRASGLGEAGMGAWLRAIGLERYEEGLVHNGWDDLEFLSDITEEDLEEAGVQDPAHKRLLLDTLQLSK", "assay": "Inhibition of SHIP2 in mouse HT22 cells assessed as decrease in PI(3,4)P2 production at 10 uM after 24 hrs by mKate2-TAPP1-PH based fluorescence imaging method", "type": "cell-based"}, "[3]": {"target": "Glycogen synthase kinase-3 beta (Mus musculus) (UniProt Q9WV60)", "sequence (Q9WV60 whole entry, looked up)": "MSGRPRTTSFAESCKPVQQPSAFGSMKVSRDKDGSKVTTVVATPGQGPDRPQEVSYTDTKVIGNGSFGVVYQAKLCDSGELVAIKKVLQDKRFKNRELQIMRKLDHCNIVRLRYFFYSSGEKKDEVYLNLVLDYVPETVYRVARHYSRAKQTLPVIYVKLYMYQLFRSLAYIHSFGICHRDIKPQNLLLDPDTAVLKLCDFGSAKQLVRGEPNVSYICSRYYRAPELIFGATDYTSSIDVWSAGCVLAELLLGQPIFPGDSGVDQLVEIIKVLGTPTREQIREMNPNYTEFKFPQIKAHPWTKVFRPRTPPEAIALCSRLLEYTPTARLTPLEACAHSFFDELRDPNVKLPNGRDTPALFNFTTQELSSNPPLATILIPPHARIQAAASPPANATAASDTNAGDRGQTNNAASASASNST", "assay": "Inhibition of amyloid beta (1 to 42)-induced GSK3beta activation in mouse HT22 cells assessed as increase in GSK3beta phosphorylation at Ser9 residues at 10 uM after 24 hrs by ELISA", "type": "cell-based"}, "[4]": {"target": "T1, Phosphatidylinositol 3,4,5-trisphosphate 5-phosphatase 2 (Mus musculus)", "assay": "Inhibition of SHIP2 in H2O2-stimulated mouse HT22 cells assessed as decrease in PI(3,4)P2 production at 10 uM incubated for 30 mins followed by H2O2 stimulation for 5 mins in presence of PTEN inhibitor VO-Ohpic trihydrate by ELISA"}, "[5]": {"assay": "Half life in Sprague-Dawley rat at 2 mg/kg, iv administered as single dose by LC-MS/MS analysis", "type": "ADME, organism-based", "settings": "in vivo"}, "[6]": {"assay": "Tmax in Sprague-Dawley rat at 2 mg/kg, iv administered as single dose by LC-MS/MS analysis", "type": "ADME, organism-based", "settings": "in vivo"}, "[7]": {"assay": "Cmax in Sprague-Dawley rat at 2 mg/kg, iv administered as single dose by LC-MS/MS analysis", "type": "ADME, organism-based", "set-up": "dose 2 mg/kg, route intravenous", "settings": "in vivo"}, "[8]": {"assay": "AUC (0 to t) in Sprague-Dawley rat at 2 mg/kg, iv administered as single dose by LC-MS/MS analysis", "type": "ADME, organism-based", "settings": "in vivo"}, "[9]": {"assay": "AUC (0 to infinity) in Sprague-Dawley rat at 2 mg/kg, iv administered as single dose by LC-MS/MS analysis", "type": "ADME, organism-based", "set-up": "dose 2 mg/kg, time infinity, route intravenous", "settings": "in vivo"}, "[10]": {"assay": "MRT (0 to infinity) in Sprague-Dawley rat at 2 mg/kg, iv administered as single dose by LC-MS/MS analysis", "type": "ADME, organism-based", "settings": "in vivo"}, "[11]": {"assay": "Apparent volume of distribution in Sprague-Dawley rat at 2 mg/kg, iv administered as single dose by LC-MS/MS analysis", "type": "ADME, organism-based", "settings": "in vivo, read-out: Vz"}, "[12]": {"assay": "Oral bioavailability in Sprague-Dawley rat at 2 mg/kg, iv administered as single dose by LC-MS/MS analysis", "type": "ADME, organism-based", "settings": "in vivo"}, "[13]": {"assay": "Cmax in Sprague-Dawley rat at 10 mg/kg, po administered as single dose by LC-MS/MS analysis", "type": "ADME, organism-based", "set-up": "dose 10 mg/kg, route oral", "settings": "in vivo"}, "[14]": {"assay": "MRT (0 to t) in Sprague-Dawley rat at 10 mg/kg, po administered as single dose by LC-MS/MS analysis", "type": "ADME, organism-based", "settings": "in vivo"}, "[15]": {"assay": "Drug uptake in blood of Sprague-Dawley rat at 5 mg/kg, iv measured at 1 hr by LC-MS/MS analysis", "type": "ADME, organism-based", "settings": "read-out: Drug uptake"}, "[16]": {"assay": "Drug uptake in brain of Sprague-Dawley rat at 5 mg/kg, iv measured at 1 hr by LC-MS/MS analysis", "type": "ADME, organism-based", "settings": "read-out: Drug uptake"}, "[17]": {"assay": "Drug uptake in blood of Sprague-Dawley rat at 5 mg/kg, iv measured at 5 hrs by LC-MS/MS analysis", "type": "ADME, organism-based", "settings": "read-out: Drug uptake"}, "[18]": {"assay": "Drug uptake in brain of Sprague-Dawley rat at 5 mg/kg, iv measured at 5 hrs by LC-MS/MS analysis", "type": "ADME, organism-based", "settings": "read-out: Drug uptake"}}, "note": "The source made the active and inactive calls. No cut-off for these calls is given here."}
{"smiles": "O=C(NCc1c(F)cccc1F)c1sccc1OCc1ccc(Cl)cc1Cl", "values": [{"measurement": "remaining at 0.5 h, 1 µM", "setting": "[1]", "value": 6.4, "unit": "%"}, {"measurement": "inhibition", "setting": "[2]", "value": "Active"}, {"measurement": "inhibition", "setting": "[3]", "value": "Active"}]}
{"smiles": "N#Cc1ccc(-c2cncc(OCc3ccc(Cl)cc3Cl)c2)s1", "values": [{"measurement": "remaining at 0.5 h, 1 µM", "setting": "[1]", "value": 38.8, "unit": "%"}, {"measurement": "inhibition", "setting": "[2]", "value": "Active"}]}
{"smiles": "C[C@@H](Oc1cncc(-c2cnc(N)nc2)c1)c1c(Cl)ccc(F)c1Cl", "values": [{"measurement": "remaining at 0.5 h, 1 µM", "setting": "[1]", "value": 46.5, "unit": "%"}, {"measurement": "inhibition", "setting": "[2]", "value": "Active"}, {"measurement": "inhibition", "setting": "[4]", "value": "Active"}, {"measurement": "inhibition", "setting": "[3]", "value": "Active"}, {"measurement": "half-life", "setting": "[5]", "value": 1.36, "unit": "h"}, {"measurement": "Tmax", "setting": "[6]", "value": 4.8, "unit": "min"}, {"measurement": "Cmax", "setting": "[7]", "value": 1480, "unit": "ng/mL"}, {"measurement": "AUC(0-t)", "setting": "[8]", "value": 1700, "unit": "ng·h/mL"}, {"measurement": "AUC(0-inf)", "setting": "[9]", "value": 1720, "unit": "ng·h/mL"}, {"measurement": "MRT inf", "setting": "[10]", "value": 1.37, "unit": "h"}, {"measurement": "Vd", "setting": "[11]", "value": 2.3, "unit": "L/kg"}, {"measurement": "bioavailability", "setting": "[12]", "value": 33.3, "unit": "%"}, {"measurement": "Cmax", "setting": "[13]", "value": 636, "unit": "ng/mL"}, {"measurement": "MRT last", "setting": "[14]", "value": 3.06, "unit": "h"}, {"measurement": "concentration at 1 h", "setting": "[15]", "value": 1180, "unit": "ng/mL"}, {"measurement": "concentration at 1 h", "setting": "[16]", "value": 2730, "unit": "ng/mL"}, {"measurement": "concentration at 5 h", "setting": "[17]", "value": 89.4, "unit": "ng/mL"}, {"measurement": "concentration at 5 h", "setting": "[18]", "value": 194, "unit": "ng/mL"}]}
